Reference: patent US10105437B2, “Epitopes related to coeliac disease” (BTG International Limited, priority 2004, dated 2018)

Test system: PBMC from HLA-DQ2+ coeliac subjects
Assay: Interferon gamma ELISPOT, second round wheat gliadin and glutenin 16mer library
Type: cell-based, human
Conditions: 16mers pre-treated with transglutaminase, 18 or 28 subjects; for subjects with >70% of maximal peptide-specific response: normalized to individual's maximal response
Excerpt: 12mer peptides were then identified in which each potential deamidation site could be in position 4, 6 or 7 in the 9mer located within HLA-DQ2 binding groove (HLA-DQ2 anchors at these positions show a preference for glutamate). Candidate 12mer core epitope sequences were then flanked with glycine followed by the N-terminal residue present in the parent gliadin polypeptide and at the C-terminal by the C-terminal residue present in the parent gliadin polypeptide followed by glycine (i.e. GXXXXXXXQXXXXXXG (SEQ ID NO: 1936)). […]
IFNγ ELISpot assays (Mabtech, Sweden) were performed in 96-well plates (MAIP S-45, Millipore) in which each well contained 25 mcl of peptide solution and 100 mcl of PBMC (2-8×10^5/well) in RPMI containing 10% heat inactivated human AB serum. After development and drying, IFNγ ELISpot plates were assessed using the MAIP automated ELISpot plate counter. Data was then analysed according to a novel algorithm (Expectation Maximization: EM) to define and quantify interferon-gamma responses to 9mer sequences contained within the peptide library (see FIG. 3 and below). 9mer peptides were then rationalised according to an algorithm that assumes redundancy in T-cell recognition, the “IterativeCluster” algorithm (see FIG. 4 and below), by allowing groups of amino acids with similar chemical properties at any one position in the 9mer, or for glutamate to replace glutamine at any position (assuming deamidation may have occurred).
All 2nd round 16mer peptides were assessed in at least 18 subjects. […] All 16mers identified for the second round Oxford library also fulfilled the selection criteria for the Melbourne second round library.
The second round peptide library data was analysed according to the “dominance” of peptide responses in the interferon gamma ELISPOT in individual subjects i.e. the percent response of an individual's PBMC to a specific peptide normalized against that individual's maximal peptide-induced response. Sequences of peptides that stimulated at least 40% of the maximal peptide-specific response in at least one subject are shown in Table 1 below. The dataset supports the consistency and “dominance” of peptides conforming to the sequences identified using the first round 20mer peptide library using the Expectation Maximization (EM) algorithm described above.

Substance | subjects with 10-40% of maximal peptide-specific response | subjects with 40-70% of maximal peptide-specific response | subjects with <10% of maximal peptide-specific response | subjects with >70% of maximal peptide-specific response
YVPPDCSTINVPYANI [wheat 16mer, second round library] | 1/18 | 1/18 | 15/18 | 1/18
G-QPFPLQPQQPFPQQ-G: wheat 16mer, second round library (GQPFPWQPQQPFPQQG; Description of Artificial Sequence: Synthetic gluten peptide) | 7/28 | 2/28 | 19/28 | Nil
DAIRAIIYSIVLQEQQ [wheat 16mer, second round library] | Nil | Nil | 17/18 | Nil
G-IQVDPSGQVQWPQQ-G: wheat 16mer, second round library (GMQADPSGQVQWPQQG; Description of Artificial Sequence: Synthetic gluten peptide) | Nil | Nil | 17/18 | 1/18
G-QQPFPQPQQPFPWQ-G: wheat 16mer, second round library | 5/28 | 8/28 | 6/28 | 9/28
G-LQPFPQPQLPYPQP-G: wheat 16mer, second round library (GLQPFPQPQLPYPQPG; Description of Artificial Sequence: Synthetic gluten peptide) | Nil | 8/28 | 6/28 | 14/28
LEAVTSIALRTLPTMC [wheat 16mer, second round library] | 1/18 | 1/18 | – | Nil
G-FPQPQQPQQPFPQQ-G: wheat 16mer, second round library (GFPQPQQPQQSFPQQG; Description of Artificial Sequence: Synthetic gluten peptide) | 3/28 | 1/28 | 25/28 | Nil
QQGYYPTSPQQSGQGQ (QGQQGYYPTSPQQPPQ; Description of Artificial Sequence: Synthetic gluten peptide) [wheat 16mer, second round library] | Nil | 1/18 | 17/18 | Nil
QQGYYPISPQQLGQGQ [wheat 16mer, second round library] | Nil | 1/18 | Nil | Nil
